These molecules were tested on Male SD rats (assay: Oral Glucose Tolerance Test). Details: 10 mg/kg po 30-40 min prior to oGTT (glucose 2 g/kg po), blood glucose AUC t=0 to t=120 min.
Type: in vivo, rat
Procedure: Male SD rats (200-250 g) were housed 2 per cage in a temperature-controlled room with a 12-hour light/dark cycle. They were allowed ad libitum access to water and fed with normal rodent chow. The night before the oral glucose tolerance test (oGTT), the rats were transferred to clean cages and fasted overnight. On the morning of the oGTT, the rats were weighed and randomized into groups based on fasted blood glucose and body weight. Rats were dosed with vehicle (0.5% methocel) or compounds (10 mg/kg, po) thirty to forty min prior to the oGTT (glucose, 2 g/kg, po). Blood was collected from the tail vein at 0, 10, 30, 60 and 120 minutes after glucose challenge to measure blood glucose; plasma was used to determine insulin levels. The area under the curve for blood glucose excursion was calculated from t=0 to t=120 minutes. Percent lowering of glucose was calculated from the AUC data with respect to the vehicle-treated group.
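Wherever hGPR40 Ca^2+ Assay EC50 is given: calcium flux followed with the Fluo-8 fluorescent dye, intensity read each second over 8 min as compounds were added to the cells.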

`CC#C[C@@H](Cc1nnn[nH]1)c1ccc(OCc2ccc3sc(F)c(-c4ccc(OCCOC)cc4C)c3c2)cc1` [Cpd 44, (2S)-5-(2-(4-((2-Fluoro-3-(4-(2-methoxyethoxy)-2-methylphenyl)benzo[b]thiophen-5-yl)methoxy)phenyl)pent-3-yn-1-yl)-1H-tetrazole] and `CC#C[C@@H](Cc1nnn[nH]1)c1ccc(OCc2ccc3sc(C(F)(F)F)c(-c4ccc(OCCOC)cc4C)c3c2)cc1` [Cpd 47, 5-((2S)-2-(4-((3-(4-(2-Methoxyethoxy)-2-methylphenyl)-2-(trifluoromethyl)benzo[b]thiophen-5-yl)methoxy)phenyl)pent-3-yn-1-yl)-1H-tetrazole] are the same in “Percent Lowering of Glucose (AUC compound vs. AUC Vehicle)” value (“Percent Lowering of Glucose” for short): 91% for the first, 91% for the second.

Going from `CC#C[C@@H](Cc1nnn[nH]1)c1ccc(OCc2ccc3scc(-c4ccccc4C)c3c2)cc1` [Cpd 1, (2S)-5-(2-(4-((3-(2-Methylphenyl)benzo[b]thiophen-5-yl)methoxy)phenyl)pent-3-yn-1-yl)-1H-tetrazole] to `CC#C[C@@H](Cc1nnn[nH]1)c1ccc(OCc2ccc3scc(-c4ccc(OCCCS(C)(=O)=O)cc4C)c3c2)cc1` [Cpd 16, (2S)-5-(2-(4-((3-(2-Methyl-4-(3-(methylsulfonyl)propoxy)phenyl)benzo[b]thiophen-5-yl)methoxy)phenyl)pent-3-yn-1-yl)-1H-tetrazole], the “Percent Lowering of Glucose” value rises from 81% to 105%.

`CC#C[C@@H](Cc1nnn[nH]1)c1ccc(OCc2ccc3scc(-c4ccc(OCC5(C)CS(=O)(=O)C5)cc4C)c3c2)cc1` [Cpd 12, (2S)-3-((4-(5-((4-(1-(1H-Tetrazol-5-yl)pent-3-yn-2-yl)phenoxy)methyl)benzo[b]thiophen-3-yl)-3-methylphenoxy)methyl)-3-methylthietane 1,1-dioxide] was tested, and the “Percent Lowering of Glucose” value was 101%.

The molecules below were run against human GPR40 (Homo sapiens (Human), UniProt O14842) (assay: GPR40 Calcium Flux Assay). Details: transfected HEK293 cells stably expressing human GPR40; Ca2+ mobilization; mean data; read-out: hGPR40 Ca^2+ Assay EC50.
Sequence of human GPR40 (O14842 whole entry): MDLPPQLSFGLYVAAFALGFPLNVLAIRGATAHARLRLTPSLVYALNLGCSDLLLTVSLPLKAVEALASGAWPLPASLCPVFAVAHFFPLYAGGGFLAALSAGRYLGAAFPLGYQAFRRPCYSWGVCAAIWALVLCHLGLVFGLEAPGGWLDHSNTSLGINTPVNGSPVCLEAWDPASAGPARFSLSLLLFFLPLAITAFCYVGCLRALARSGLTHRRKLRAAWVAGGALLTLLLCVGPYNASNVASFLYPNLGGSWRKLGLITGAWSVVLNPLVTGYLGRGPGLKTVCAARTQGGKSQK
Type: cell-based

Going from `CC#C[C@@H](Cc1nnn[nH]1)c1ccc(OCc2ccc3scc(-c4ccccc4C)c3c2)nc1` [Cpd 40, (2R)-5-(1-(1H-Tetrazol-5-yl)pent-3-yn-2-yl)-2-((3-(2-methylphenyl)benzo[b]thiophen-5-yl)methoxy)pyridine] to `CC#C[C@@H](Cc1nnn[nH]1)c1ccc(OCc2ccc3scc(-c4ccccc4Cl)c3c2)cc1` [Cpd 32, (2S)-5-(2-(4-((3-(2-Chlorophenyl)benzo[b]thiophen-5-yl)methoxy)phenyl)pent-3-yn-1-yl)-1H-tetrazole], the EC50 falls from 58 nM to 11 nM (5.3-fold).

`CC#C[C@@H](Cc1nnn[nH]1)c1ccc(OCc2ccc3scc(-c4ccc(OC)cc4C)c3n2)cc1` [Cpd 54, (2S)-5-((4-(1-(1H-Tetrazol-5-yl)pent-3-yn-2-yl)phenoxy)methyl)-3-(4-methoxy-2-methylphenyl)thieno[3,2-b]pyridine] was tested, and the EC50 was 180 nM.

Reference: patent publication US10106553B2, “Substituted benzothiophenyl derivatives as GPR40 agonists for the treatment of type II diabetes” (Janssen Pharmaceutica NV, priority 2016, dated 2018)
